Format in all cases: cell-based
Assay [1] deals with E. cloacae ATCC13047. The experiment in a line: MIC by microbroth dilution (CLSI), strain No. 1. The following applies: E. cloacae ATCC13047, AmpC, ceftazidime-resistant, cefepime-sensitive, cation-adjusted Mueller-Hinton broth; for MIC: Enterobacter cloacae, read-out: minimum inhibitory concentration (MIC), Strain No. 1. The protocol: (§1) The minimum inhibitory concentration (MIC) was measured by the microbroth dilution method in accordance with the procedures recommended by CLSI (Clinical and Laboratory Standards Institute) using 1×10^5 CFU/mL as an inoculum dose and a cation-adjusted Mueller-Hinton broth as a test medium.
(§2) The strains used are as described in the table below.

The subject of assay [2] is K. pneumoniae SR01358. Briefly: MIC by microbroth dilution (CLSI), strain No. 2. The following applies: K. pneumoniae SR01358, KPC-2, KPC-producing strain, cation-adjusted Mueller-Hinton broth; for MIC: Klebsiella pneumoniae, read-out: minimum inhibitory concentration (MIC), Strain No. 2. The protocol:
as §1, §2

In assay [3] the test system is K. pneumoniae SR01453. Briefly: MIC by microbroth dilution (CLSI), strain No. 3. The following applies: K. pneumoniae SR01453, NDM-1, MBL-producing strain, carbapenem-resistant, cation-adjusted Mueller-Hinton broth; for MIC: Klebsiella pneumoniae, read-out: minimum inhibitory concentration (MIC), Strain No. 3. The protocol:
as §1, §2

The test system of assay [4] is K. pneumoniae NCTC13443. The experiment in a line: MIC by microbroth dilution (CLSI), strain No. 4. The following applies: K. pneumoniae NCTC13443, NDM-1, MBL-producing strain, carbapenem-resistant, cation-adjusted Mueller-Hinton broth; for MIC: Klebsiella pneumoniae, read-out: minimum inhibitory concentration (MIC), Strain No. 4. As to the method:
as §1, §2

The subject of assay [5] is E. cloacae SR36276. The experiment in a line: MIC by microbroth dilution (CLSI), strain No. 5. The following applies: E. cloacae SR36276, AmpC, highly AmpC-producing strain, ceftazidime-resistant, cefepime-sensitive, cation-adjusted Mueller-Hinton broth; for MIC: Enterobacter cloacae, read-out: minimum inhibitory concentration (MIC), Strain No. 5. As to the method: as §1, §2

Assay [6] concerns E. coli SR09613. Briefly: MIC by microbroth dilution (CLSI), strain No. 6. The following applies: Escherichia coli, SR09613, read-out: minimum inhibitory concentration (MIC), Strain No. 6. As to the method:
as §1, §2

Assay [7] has as its system E. coli SR09616. Briefly: MIC by microbroth dilution (CLSI), strain No. 7. The conditions noted are these: Escherichia coli, SR09616, read-out: minimum inhibitory concentration (MIC), Strain No. 7. The protocol: as §1, §2

Converted amounts (≈) assume the structure as drawn.

As for `Nc1nc(/C(=N/OCC(=O)O)C(=O)N[C@@H]2C(=O)N3[C@@H]2[S@@+]([O-])C[C@@H]2CC(=O)O[C@@]23C(=O)O)cs1` [Compound I-001], the MIC in assay [1] is 0.125 µg/mL (≈ 0.249 µM); in assay [2] it was 0.25 µg/mL (≈ 0.499 µM); in assay [3] it was 0.063 µg/mL (≈ 0.126 µM); in assay [4], 1 µg/mL (≈ 1.99 µM); in assay [5], 0.063 µg/mL (≈ 0.126 µM).

As to `Nc1nc(/C(=N/OCC(=O)O)C(=O)N[C@@H]2C(=O)N3[C@@H]2S(=O)(=O)C[C@@H]2CC(=O)O[C@@]23C(=O)O)cs1` [Compound I-003], the MIC in assay [1] stood at 0.25 µg/mL (≈ 0.483 µM); in assay [2] it was 0.5 µg/mL (≈ 0.966 µM); in assay [3], 0.25 µg/mL (≈ 0.483 µM); in assay [4], 4 µg/mL (≈ 7.73 µM); in assay [5], 1 µg/mL (≈ 1.93 µM).

In the case of `C[C@H](O/N=C(\C(=O)N[C@@H]1C(=O)N2[C@@H]1[S@@+]([O-])C[C@@H]1CC(=O)O[C@@]12C(=O)O)c1csc(N)n1)C(=O)O` [Compound I-005], the MIC in assay [1] was 0.5 µg/mL (≈ 0.97 µM); in assay [2] it was 0.5 µg/mL (≈ 0.97 µM); in assay [3], 0.125 µg/mL (≈ 0.242 µM); in assay [4] it was 1 µg/mL (≈ 1.94 µM); in assay [5], 0.125 µg/mL (≈ 0.242 µM).

With `CC(C)(O/N=C(\C(=O)N[C@@H]1C(=O)N2[C@@H]1[S@@+]([O-])C[C@@H]1CC(=O)O[C@@]12C(=O)[O-])c1csc(N)n1)C(=O)[O-].[Na+].[Na+]` [Compound I-007], the MIC in assay [1] came out at 0.25 µg/mL; in assay [2], 0.5 µg/mL; in assay [3], 0.5 µg/mL; in assay [4], 2 µg/mL; in assay [5] it was 0.25 µg/mL.

Turning to `Nc1nc(/C(=N/OC2(C(=O)[O-])CC2)C(=O)N[C@@H]2C(=O)N3[C@@H]2[S@@+]([O-])C[C@@H]2CC(=O)O[C@@]23C(=O)[O-])cs1.[Na+].[Na+]` [Compound I-015], the MIC in assay [1] is 0.125 µg/mL; in assay [2] it was 0.5 µg/mL; in assay [3], 0.125 µg/mL; in assay [4], 1 µg/mL; in assay [5] it was 0.125 µg/mL.

Consider `CO/N=C(\C(=O)N[C@@H]1C(=O)N2[C@@H]1[S@@+]([O-])C[C@@H]1CC(=O)O[C@@]12C(=O)[O-])c1csc(N)n1.[Na+]` [Compound I-023], for which the MIC in assay [1] is 0.25 µg/mL; in assay [2], 1 µg/mL; in assay [3], 0.25 µg/mL; in assay [4], 4 µg/mL; in assay [5], 1 µg/mL.

As to `Nc1nc(/C(=N/O[C@H](CO)C(=O)O)C(=O)N[C@@H]2C(=O)N3[C@@H]2[S@@+]([O-])C[C@@H]2CC(=O)O[C@@]23C(=O)O)cs1` [Compound I-026], the MIC in assay [1] amounted to 0.125 µg/mL (≈ 0.235 µM); in assay [2] it was 0.5 µg/mL (≈ 0.941 µM); in assay [3] it was 0.125 µg/mL (≈ 0.235 µM); in assay [4] it was 1 µg/mL (≈ 1.88 µM); in assay [5], 0.125 µg/mL (≈ 0.235 µM).

As to `Nc1nc(/C(=N/O[C@@H](CO)C(=O)O)C(=O)N[C@@H]2C(=O)N3[C@@H]2[S@@+]([O-])C[C@@H]2CC(=O)O[C@@]23C(=O)O)cs1` [Compound I-027], the MIC in assay [1] is 0.063 µg/mL (≈ 0.119 µM); in assay [2], 0.25 µg/mL (≈ 0.47 µM); in assay [3] it was 0.063 µg/mL (≈ 0.119 µM); in assay [4] it was 1 µg/mL (≈ 1.88 µM); in assay [5] it was ≤ 0.031 µg/mL.

For `Nc1nc(/C(=N/OC(F)C(=O)O)C(=O)N[C@@H]2C(=O)N3[C@@H]2[S@@+]([O-])C[C@@H]2CC(=O)O[C@@]23C(=O)O)cs1` (stereo partly drawn) [Compound I-037], the MIC is 0.5 µg/mL (≈ 0.963 µM) in assay [1]; 1 µg/mL (≈ 1.93 µM) in assay [2]; 0.25 µg/mL (≈ 0.481 µM) in assay [3]; 8 µg/mL (≈ 15.4 µM) in assay [4]; 0.5 µg/mL (≈ 0.963 µM) in assay [5].

`N#CCO/N=C(\C(=O)N[C@@H]1C(=O)N2[C@@H]1[S@@+]([O-])C[C@@H]1CC(=O)O[C@@]12C(=O)O)c1csc(N)n1` [Compound I-039]: the MIC in assay [1] worked out at 0.5 µg/mL (≈ 1.04 µM); in assay [3], 0.125 µg/mL (≈ 0.259 µM); in assay [4], 4 µg/mL (≈ 8.29 µM); in assay [5], 2 µg/mL (≈ 4.15 µM); in assay [6] it was 0.25 µg/mL (≈ 0.518 µM); in assay [7] it was 1 µg/mL (≈ 2.07 µM).

As to `C[n+]1ccc(CO/N=C(\C(=O)N[C@@H]2C(=O)N3[C@@H]2[S@@+]([O-])C[C@@H]2CC(=O)O[C@@]23C(=O)[O-])c2csc(N)n2)cc1` [Compound I-041], the MIC in assay [1] was found to be 1 µg/mL (≈ 1.82 µM); in assay [3], 0.5 µg/mL (≈ 0.911 µM); in assay [6] it was 0.5 µg/mL (≈ 0.911 µM); in assay [7], 2 µg/mL (≈ 3.65 µM).

`Nc1nc(/C(=N/OCc2cccnc2)C(=O)N[C@@H]2C(=O)N3[C@@H]2[S@@+]([O-])C[C@@H]2CC(=O)O[C@@]23C(=O)O)cs1` [Compound I-042]: the results for the MIC in assay [3], in assay [6] and in assay [7] were 2 µg/mL (≈ 3.74 µM), 4 µg/mL (≈ 7.48 µM) and 4 µg/mL (≈ 7.48 µM), respectively.

On to `Nc1nc(/C(=N/OC[C@@H](O)CO)C(=O)N[C@@H]2C(=O)N3[C@@H]2[S@@+]([O-])C[C@@H]2CC(=O)O[C@@]23C(=O)O)cs1` [Compound I-044], for which the MIC in assay [1] stood at 0.5 µg/mL (≈ 0.966 µM); in assay [3], 1 µg/mL (≈ 1.93 µM); in assay [4], 2 µg/mL (≈ 3.86 µM); in assay [5] it was 1 µg/mL (≈ 1.93 µM); in assay [6], 0.25 µg/mL (≈ 0.483 µM); in assay [7], 1 µg/mL (≈ 1.93 µM).

`CC(CO)(CO)O/N=C(\C(=O)N[C@@H]1C(=O)N2[C@@H]1[S@@+]([O-])C[C@@H]1CC(=O)O[C@@]12C(=O)O)c1csc(N)n1` [Compound I-045]: the MIC in assay [1] is 0.5 µg/mL (≈ 0.941 µM); in assay [3] it was 0.25 µg/mL (≈ 0.47 µM); in assay [4], 8 µg/mL (≈ 15.1 µM); in assay [5], 2 µg/mL (≈ 3.76 µM); in assay [6] it was 0.25 µg/mL (≈ 0.47 µM).

Consider `NC(=O)NCCO/N=C(\C(=O)N[C@@H]1C(=O)N2[C@@H]1[S@@+]([O-])C[C@@H]1CC(=O)O[C@@]12C(=O)O)c1csc(N)n1` [Compound I-056], for which the MIC worked out at 0.5 µg/mL (≈ 0.944 µM) in assay [1]; 0.5 µg/mL (≈ 0.944 µM) in assay [3]; 2 µg/mL (≈ 3.78 µM) in assay [5]; 0.5 µg/mL (≈ 0.944 µM) in assay [6]; 2 µg/mL (≈ 3.78 µM) in assay [7].

For the compound `Nc1nc(/C(=N/OCCO)C(=O)N[C@@H]2C(=O)N3[C@@H]2[S@@+]([O-])C[C@@H]2CC(=O)O[C@@]23C(=O)[O-])cs1.[Na+]` [Compound I-059], the MIC in assay [1] is 0.063 µg/mL; in assay [2], 0.5 µg/mL; in assay [3] it was 0.063 µg/mL; in assay [4], 1 µg/mL; in assay [5] it was 0.25 µg/mL.

Regarding `NC(=O)CO/N=C(\C(=O)N[C@@H]1C(=O)N2[C@@H]1[S@@+]([O-])C[C@@H]1CC(=O)O[C@@]12C(=O)[O-])c1csc(N)n1.[Na+]` [Compound I-060], the MIC in assay [1] came out at 0.125 µg/mL; in assay [2], 0.5 µg/mL; in assay [3], 0.125 µg/mL; in assay [4], 4 µg/mL; in assay [5], 0.5 µg/mL.

Regarding `Nc1nc(/C(=N/OCCC(=O)O)C(=O)N[C@@H]2C(=O)N3[C@@H]2[S@@+]([O-])C[C@@H]2CC(=O)O[C@@]23C(=O)[O-])cs1.[Na+]` [Compound I-061], the “minimum inhibitory concentration (MIC), Strain No. 1” value in assay [1] worked out at 0.125 µg/mL. In assay [2], the “minimum inhibitory concentration (MIC), Strain No. 2” value worked out at 0.5 µg/mL. In addition, the “minimum inhibitory concentration (MIC), Strain No. 3” value in assay [3] is 0.25 µg/mL. For the same compound, in assay [4], the “minimum inhibitory concentration (MIC), Strain No. 4” value is 4 µg/mL. Moreover, the “minimum inhibitory concentration (MIC), Strain No. 5” value in assay [5] worked out at 0.25 µg/mL.

For the compound `CO/N=C(\C(=O)N[C@@H]1C(=O)N2[C@@H]1S(=O)(=O)C[C@@H]1CC(=O)O[C@@]12C(=O)[O-])c1csc(N)n1.[Na+]` [Compound I-070], the MIC in assay [1] was determined as 1 µg/mL; in assay [2], 1 µg/mL; in assay [3] it was 0.25 µg/mL; in assay [4], 4 µg/mL; in assay [5], 4 µg/mL.

For `NCCO/N=C(\C(=O)N[C@@H]1C(=O)N2[C@@H]1[S@@+]([O-])C[C@@H]1CC(=O)O[C@@]12C(=O)O)c1csc(N)n1` [Compound I-072], the MIC in assay [6] and in assay [7] was 4 µg/mL (≈ 8.22 µM) throughout.

Source of the values: US20180186814A1, “TRICYCLIC COMPOUND HAVING SULFINYL OR SULFONYL” (Shionogi & Co., Ltd., priority 2015, published 2018).
